Here are results for 17 molecules from patent US9732104B2, “Ether compounds for treatment of complement mediated disorders” (Achillion Pharmaceuticals, Inc., priority 2014, dated 2017).

pIC50: −log10 of the molar value. Some results are limits rather than exact numbers.

Chain of Human factor D (P00746 26-253): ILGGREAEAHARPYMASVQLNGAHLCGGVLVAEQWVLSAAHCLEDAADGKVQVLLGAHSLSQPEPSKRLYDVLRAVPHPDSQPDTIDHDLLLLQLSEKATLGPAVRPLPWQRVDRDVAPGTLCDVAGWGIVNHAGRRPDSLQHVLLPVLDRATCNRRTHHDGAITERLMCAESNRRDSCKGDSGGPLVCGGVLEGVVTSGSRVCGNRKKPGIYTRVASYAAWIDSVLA

The assay has as its target Human factor D (Homo sapiens (Human), UniProt P00746). Description: Human Factor D Assay. Conditions: Human factor D purified from human serum, 80 nM; substrate Z-L-Lys-SBzl with DTNB; assay of Example 8. Type of assay: biochemical. On the procedure:
The assay of Example 8 was used to determine the IC50's of the compounds. Other standard factor D inhibition assays are also available.
Example 8. Human Factor D Assay
Human factor D (purified from human serum, Complement Technology, Inc.) at 80 nM final concentration is incubated with test compound at various concentrations for 5 minutes at room temperature in 50 mM Tris, 1M NaCl, pH 7.5. A synthetic substrate Z-L-Lys-SBzl and DTNB (Ellman's reagent) are added to final concentrations of 100 µM each. The increase in color is recorded at OD405 nm in a microplate in kinetic mode over 30 minutes with 30 second time points in a […]. IC50 values are calculated by non-linear regression from the percentage of inhibition of complement factor D activity as a function of test compound concentration.
Take `CC(=O)c1cn(CC(=O)N2C[C@H](F)C[C@H]2C(=O)Nc2ccc(OC(F)(F)F)c(F)c2)c2cc(OCP(=O)(O)O)ccc12` [Compound 25, (3-acetyl-1-(2-((2S,4R)-4-fluoro-2-(3-fluoro-4-(trifluoromethoxy)phen-ylcarbamoyl)pyrrolidin-1-yl)-2-oxoethyl)-1H-indol-6-yloxy)methylphosphonic acid]: the pIC50 (commonly −log10 of the IC50, conventionally taken in molar units) was > 6.00.
Under `CC(=O)c1cn(CC(=O)N2C[C@H](F)C[C@H]2C(=O)Nc2cccc(Oc3ccccc3)c2)c2cc(OCP(=O)(O)O)ccc12` [Compound 26, (3-acetyl-1-(2-((2S,4R)-4-fluoro-2-(3-phenoxy-phenylcarbamoyl)pyrrolidin-1-yl)-2-oxoethyl)-1H-indol-6-yloxy)methylphosphonic acid] stands > 6.00; under `CC(=O)c1cn(CC(=O)N2C[C@H](F)C[C@H]2C(=O)Nc2cccc(OC(F)(F)F)c2F)c2cc(OCP(=O)(O)O)ccc12` [Compound 27, (3-acetyl-1-(2-((2S,4R)-4-fluoro-2-(2-fluoro-3-(trifluoromethoxy)phenyl-carbamoyl)pyrrolidin-1-yl)-2-oxoethyl)-1H-indol-6-yloxy)methylphosphonic acid], > 6.00.
Under `CC(C)(C)NS(=O)(=O)COc1ccc2c(C(N)=O)nn(CC(=O)N3C[C@H](F)C[C@H]3C(=O)Nc3cccc(-c4ccccc4Cl)c3F)c2c1` [Compound 28, 6-(N-tert-butylsulfamoylmethoxy)-1-(2-((2S,4R)-2-(2′-chloro-2-fluorobiphenyl-3-ylcarbamoyl)-4-fluoropyrrolidin-1-yl)-2-oxoethyl)-1H-indazole-3-carboxamide] stands > 6.00; under `NC(=O)c1nn(CC(=O)N2C[C@H](F)C[C@H]2C(=O)Nc2cccc(-c3ccccc3Cl)c2F)c2cc(OCS(N)(=O)=O)ccc12` [Compound 29, 1-(2-((2S,4R)-2-(2′-chloro-2-fluorobiphenyl-3-ylcarbamoyl)-4-fluoropyrrolidin-1-yl)-2-oxoethyl)-6-(sulfamoylmethoxy)-1H-indazole-3-carboxamide], > 6.00.
Under `CC(=O)c1cn(CC(=O)N2C[C@H](F)C[C@H]2C(=O)NCc2cccc(Cl)c2F)c2cc(Oc3ncccn3)ccc12` [Compound 30, (2S,4R)-1-(2-(3-acetyl-6-(pyrimidin-2-yloxy)-1H-indol-1-yl)acetyl)-N-(3-chloro-2-fluorobenzyl)-4-fluoropyrrolidine-2-carboxamide] stands > 6.00; under `NC(=O)c1nn(CC(=O)N2C[C@H](F)C[C@H]2C(=O)Nc2cccc(-c3ccccc3Cl)c2F)c2ccc(Oc3cncnc3)cc12` [Compound 31, 1-(2-((2S,4R)-2-(2′-chloro-2-fluorobiphenyl-3-ylcarbamoyl)-4-fluoropyrrolidin-1-yl)-2-oxoethyl)-5-(pyrimidin-5-yloxy)-1H-indazole-3-carboxamide], > 6.00; under `CC(=O)c1cn(CC(=O)N2C[C@H](F)C[C@H]2C(=O)Nc2cccc(-c3ccccc3Cl)c2F)c2cc(Oc3ncccn3)ccc12` [Compound 32, (2S,4R)-1-(2-(3-acetyl-6-(pyrimidin-2-yloxy)-1H-indol-1-yl)acetyl)-N-(2′-chloro-2-fluorobiphenyl-3-yl)-4-fluoropyrrolidine-2-carboxamide], > 6.00.
Consider `CC(=O)c1cn(CC(=O)N2C[C@H](F)C[C@H]2C(=O)Nc2cccc(-c3ccccc3Cl)c2F)c2ccc(Oc3ncc(Br)cn3)cc12` [Compound 33, (2S,4R)-1-(2-(3-acetyl-5-(5-bromopyrimidin-2-yloxy)-1H-indol-1-yl)acetyl)-N-(2′-chloro-2-fluorobiphenyl-3-yl)-4-fluoropyrrolidine-2-carboxamide], for which the pIC50 was > 6.00.
Turning to `CC(=O)c1cn(CC(=O)N2C[C@H](F)C[C@H]2C(=O)Nc2cccc(-c3ccccc3Cl)c2F)c2ccc(Oc3cnc(C#N)nc3)cc12` [Compound 36, (2S,4R)-1-(2-(3-acetyl-5-(2-cyanopyrimidin-5-yloxy)-1H-indol-1-yl)acetyl)-N-(2′-chloro-2-fluorobiphenyl-3-yl)-4-fluoropyrrolidine-2-carboxamide], the pIC50 is > 6.00.
The value for `CC(=O)c1cn(CC(=O)N2C[C@H](F)C[C@H]2C(=O)Nc2cccc(-c3ccccc3Cl)c2F)c2ccc(Oc3ncc(F)cn3)cc12` [Compound 37, (2S,4R)-1-(2-(3-acetyl-5-(5-fluoropyrimidin-2-yloxy)-1H-indol-1-yl)acetyl)-N-(2′-chloro-2-fluorobiphenyl-3-yl)-4-fluoropyrrolidine-2-carboxamide] was > 6.00.
The value for `CC(=O)c1cn(CC(=O)N2C[C@H](F)C[C@H]2C(=O)Nc2cccc(-c3ccccc3Cl)c2F)c2ccc(Oc3ncccn3)cc12` [Compound 38, (2S,4R)-1-(2-(3-acetyl-5-(pyrimidin-2-yloxy)-1H-indol-1-yl)acetyl)-N-(2′-chloro-2-fluorobiphenyl-3-yl)-4-fluoropyrrolidine-2-carboxamide] was > 6.00.
As for `CC(=O)c1cn(CC(=O)N2C[C@H](F)C[C@H]2C(=O)Nc2cccc(Br)n2)c2ccc(Oc3ncccn3)cc12` [Compound 39, (2S,4R)-1-(2-(3-acetyl-5-(pyrimidin-2-yloxy)-1H-indol-1-yl)acetyl)-N-(6-bromopyridin-2-yl)-4-fluoropyrrolidine-2-carboxamide], the pIC50 was > 6.00.
Under `CC(=O)c1cn(CC(=O)N2C[C@H](F)C[C@H]2C(=O)Nc2cccc(-c3ccccc3Cl)c2F)c2ccc(Oc3ncc(C)cn3)cc12` [Compound 40, (2S,4R)-1-(2-(3-acetyl-5-(5-methylpyrimidin-2-yloxy)-1H-indol-1-yl)acetyl)-N-(2′-chloro-2-fluorobiphenyl-3-yl)-4-fluoropyrrolidine-2-carboxamide] stands > 6.00; under `CC(=O)c1cn(CC(=O)N2C[C@H](F)C[C@H]2C(=O)Nc2cccc(Br)n2)c2ccc(Oc3ncc(C)cn3)cc12` [Compound 41, (2S,4R)-1-(2-(3-acetyl-5-(5-methylpyrimidin-2-yloxy)-1H-indol-1-yl)acetyl)-N-(6-bromopyridin-2-yl)-4-fluoropyrrolidine-2-carboxamide], > 6.00; under `CC(=O)c1cn(CC(=O)N2C[C@H](F)C[C@H]2C(=O)Nc2cccc(-c3ccccc3Cl)c2F)c2ccc(Oc3ncc(C(F)(F)F)cn3)cc12` [Compound 42, (2S,4R)-1-(2-(3-acetyl-5-(5-(trifluoromethyl)pyrimidin-2-yloxy)-1H-indol-1-yl)acetyl)-N-(2′-chloro-2-fluorobiphenyl-3-yl)-4-fluoropyrrolidine-2-carboxamide], > 6.00.
Take `CC(=O)c1cn(CC(=O)N2C[C@H](F)C[C@H]2C(=O)Nc2cccc(-c3ccccc3Cl)c2F)c2ccc(Oc3cnc(Cl)nc3)cc12` [Compound 43, (2S,4R)-1-(2-(3-acetyl-5-(2-chloropyrimidin-5-yloxy)-1H-indol-1-yl)acetyl)-N-(2′-chloro-2-fluorobiphenyl-3-yl)-4-fluoropyrrolidine-2-carboxamide]: the pIC50 was > 6.00.
